Entries after “also recorded” stand apart in the source; their conditions may differ. Marks after values point to notes of the source that are not given here.
What was measured:
[1] = system: SM preparations from the corpus gastric muscle; test: Ex vivo bioelectrical activity of smooth muscle preparations, single sucrose gap method; design: species or system Wistar rats; details: 5 × 10^−5 M; for Amplitude of slow waves, Measured value / Amplitude of spike potentials, Measured value / Number of slow waves, Measured value / Number of spike potentials, Measured value: 10 min, n = 7, mean ± SEM
Method: Adult male Wistar rats weighing 280–300 g were used. Animals were housed in standard laboratory conditions (23 to 25 °C, 50–55% humidity, 12/12 h light/dark cycle), while food and water were provided ad libitum.
Circular SM preparations were dissected from the corpus gastric muscle (26–28 mm long and 0.8–0.9 mm wide; without mucosa). Two or three muscle strips were taken from the rat stomach. The number of SM preparations used for each data point is indicated by n. After dissection, the tissues must prevent loss of viability, so during the dissection, the tissues were systematically moistened with a solution (NaCl:KCl:CaCl2 in ratio 27.2:1.1:1) prepared at 4 °C.
The BEA of SM preparations was investigated by means of the single sucrose gap method with silver non-polarizable freshly chlorinated electrodes. The muscle strips were divided into 3 zones: two electrode sections were flushed with isotonic KCl solution and Krebs solution (pH 7.3), respectively, and separated by a sucrose layer of high electric resistance. Krebs contained the following (in mM): NaCl 120; KCl 5.9; CaCl2 2.5; MgCl2 1.2; NaH2PO4 1.2; NaHCO3 15.4; glucose 11.5. All the ingredients for this solution were of analytical grade and obtained from Merck (Darmstadt, Germany). Deionized water (18.2 mX/cm^2) was used thoroughly. The KCl solution is similar to the Krebs solution but with an equimolar substitution of NaCl with KCl. An isotonic sucrose solution, due to its very high specific resistance (about 10^6 Ω·cm), provides the best possible separation of the sucrose solution from the physiological solution in the “normal” pool, on the one hand, and the solution providing a zero value of the membrane potential in the pool with another recording electrode.
The inflow rate of each solution (Krebs, KCl, and isotonic sucrose solution) was controlled by a needle valve and continuously aerated with a mixture of 95% O2 and 5% CO2, and the temperature was maintained at 37 °C. A potential difference between the two end sections of the gap (control conditions) was achieved by means of silver non-polarizable, freshly chlorinated electrodes and after a 40-min period of adaptation and stabilization was accepted as the initial (control). The Krebs solution was changed several times during the adaptation period. The viability of the SM preparations was periodically tested by treatment with 1 × 10^−6 M ACh.
The membrane potential value was visualized by means of a Linseis recorder (Selb, Germany). A pair of measuring electrodes is located on both sides of the sucrose sections. The pH (pH 7.3; 37 °C) of the Krebs bathing solution was measured before each experiment by pH-meter HI5521 (Hanna Instruments Inc., Woonsocket, RI, USA). […]
The new substances were dissolved initially in dimethyl sulphoxide (DMSO) to prepare a 5 × 10^−2 M stock solution. Further dilutions were made in distilled deionized water and were applied by adding aliquots of their concentrated solutions to the tissue bath.

5-HT3 receptor = test: Immunohistochemical analysis of 5-HT3 expression in gastric SM strips; design: species or system Wistar rats; key to 5-HT3 expression, 5-HT / 5-HT3 expression, Response to Compound: −: absent; +: low; ++: moderate; +++: strong; details: for 5-HT3 expression, Response to Compound: SM preparations incubated with the compound; for 5-HT3 expression in SM preparations: immunohistochemical staining after 1 h incubation, in words
Method: […] Then, each SM strip was fixed in 10% neutral buffer formalin for 24–48 h and submitted for standard processing with hematoxylin and eosin staining.
The SM fragments from a rat’s gastric wall were fixed in a 10% neutral formalin solution and embedded in paraffin. Paraffin sections of 5 μm thickness were subjected to hematoxylin and eosin (H-E) staining for histochemical analysis.
Sections of the SM fragments from the wall of a rat’s stomach with a thickness of 5 µm were deparaffinized, then subjected to antigenic detection of the epitopes with citrate buffer, and an endogenous peroxidase blockade was made with hydrogen […] 3%, a kit was used to block the endogenous biotin, and a reagent was used to block non-specific binding (Superblock, Scy Tek, Santa Cruz Biotech. Inc. Heidelberg, Germany) follows incubate for 24 h (at 4 °C) with monoclonal mouse anti-5-HT3, next incubated with a secondary antibody: biotinylated anti-rabbit for 10 min at room temperature. The reaction was visualized with 3,3′-diaminobenzidine tetrachloride and counterstained with Mayer’s hematoxylin.
A quantitative and statistical analysis of immunohistochemical reaction using the Olympus DP-Soft image system (version 4.1 for Windows) was carried out on a Microphot-SA (Nikon, Japan) microscope equipped with a Camedia-5050 Z digital camera (Olympus, Japan). The analysis was performed on sections from the SM strips from the stomach of Wistar rats (n = 6 for each group). Five sections of the SM strips were measured, and the percentage of cells expressing 5-HT3 in the circular and longitudinal layer of SM cells, as well as in the myenteric plexus of the stomach, was determined. Each antibody was analyzed for five fields, in each of them the average number of cells with positive unit area response at ×200 magnification.

CC(C)C(N)Cc1ccccc1 (centres unmarked) [Compound 3, 3-Methyl-1-phenylbutan-2-amine]
Amplitude of slow waves, Measured value [1]: 5.28 ± 0.33 mV
Amplitude of spike potentials, Measured value [1]: 2.61 ± 0.16 mV
Number of slow waves, Measured value [1]: 4.90 ± 0.09 min⁻¹
Number of spike potentials, Measured value [1]: 48.22 ± 0.39 * min^−1
Changes in the membrane potential ([1]; base activity taken as 100%, ↑ depolarization, ↓ hyperpolarization): 55%
5-HT3 expression, Response to Compound (5-HT3 receptor): +++
5-HT3 expression in SM preparations (5-HT3 receptor): higher number of 5-HT3R positive cells per section; also recorded: increased intensity in 5-HT3 expression

CC(=O)NC(Cc1ccccc1)C(C)C (centres unmarked) [Compound 4a, N-(3-methyl-1-phenylbutan-2-yl)acetamide]
Amplitude of slow waves, Measured value [1]: 4.32 ± 0.38 mV
Amplitude of spike potentials, Measured value [1]: 0 * mV
Number of slow waves, Measured value [1]: 4.72 ± 0.55 min⁻¹
Number of spike potentials, Measured value [1]: 0 * min^−1
effect on bioelectrical activity (slow waves, spike potentials) ([1]; in words): complete disappearance of the spike potentials
5-HT3 expression, Response to Compound (5-HT3 receptor): −
5-HT3 expression in SM preparations (5-HT3 receptor): no modulation on the 5-HT3R expression; also recorded: no 5-HT3 expression observed

— PMC9953468, “In Silico, In Vitro, and Ex Vivo Biological Activity of Some Novel Mebeverine Precursors” (Biomedicines, 2023)
